Assay results as given in patent US20240360186A1, “Treatment Of Integrin-Related Disorders With Stapled Peptides” (Institute For Cancer Research d/b/a The Research Institute …, priority 2021, published 2024).
“Also recorded” adds a separate entry of the source. Bridge positions count the residues as written; N and C are the ends. Square brackets hold non-standard residues; d marks the D form. Peptide text beside a SMILES is read from it. S5 = C=CCCC[C@](C)(N)C(=O)O

What was measured:
HeLa cells = assay: Cell toxicity assay, HeLa; type: cell-based; conditions: 40 μM, treated one hour then washed away, viability at 24 and 48 hours
Description: (§1) The cell toxicity of the peptides was then examined. HEK, MCF-7, and HeLa were used. Cells were treated with S-TBS 40 μm for one hour. The S-TBS was then washed away and the viability measured at 24 and 48 hours. No impact on HEK, MCF-7, and HeLa cell growth was observed.

Jurkat T-cell = assay: Cell toxicity, Jurkat T-cell growth; type: cell-based
talin rod R7R8 domains = target: T1, talin rod R7R8 domains (Mus musculus, UniProt P26039); assay: Fluorescent polarization (FP) binding assay, talin rod R7R8; conditions: S-TBS versus TBS, from FP Kd values
T1 construct: talin rod R7R8 and talin head (residues 1-430) were measured using fluorophore-labeled peptides and recombinantly expressed, purified talin proteins; made in house
Description: (§2) To assess the binding affinities of S-TBS with talin, the Kd of TBS and S-TBS peptides with talin rod R7R8 and talin head (residues 1-430) were measured using fluorophore-labeled peptides and recombinantly expressed, purified talin proteins by FP assays. […] This gain of affinity may be attributed to the C8 staple as it stabilizes the helical structure of TBS, and the enhanced hydrophobic interaction between S-TBS and talin rod. The enhanced binding of S-TBS to talin further validates the design strategy of using stapled peptides as a potent competitive inhibitor.
(§3) Fluorescent Polarization: Mixtures were prepared of purified talin proteins at a series concentration (R7R8: 0.2 μM to 20 μM; THD/b3-THD: 5 μM to 100 μM), or buffer only, with 20 nM FITC-labeled S-TBS (New England Peptide) in a buffer containing 20 mM HEPES, pH 7.5, 100 mM NaCl, and 2 mM DTT. After five minutes of incubation, 20 μl of the reaction mix was added to individual wells of a 384-well assay plate (Corning) and then measured fluorescence polarization at room temperature using a plate reader. A […] as emission polarization filters. FP signals were normalized against buffer-only background and then fit to a single-site (saturating) binding model using SigmaPlot (Systat Software).

MCF-7 cells = assay: Cell toxicity assay, MCF-7; type: cell-based; conditions: 40 μM, treated one hour then washed away, viability at 24 and 48 hours
Description: as §1

CHO-A5 cells = assay: Cell permeability assay (flow cytometry uptake of fluorophore-labelled peptide); type: in vitro ADME
Description: Assessing membrane permeability: CHO-A5 cells were treated with FAM-labelled WT-TBS (1, 10, and 50 μM), or with FITC-labelled stapled-TBS (1, 10, and 50 μM), and incubated for 30 minutes at 37° C. The cells were washed twice with phosphate-buffered saline (PBS), harvested in trypsin-EDTA, and centrifuged at 2,000 rpm for 5 minutes. The cells were resuspended in PBS and quantified with an LSR flow cytometer using 30,000 cells per measurement.
A common challenge for peptidomimetic drugs that target intracellular proteins is the poor cell membrane permeability. To assess the effect of the C8 staple on cell permeability, FITC-labeled S-TBS were incubated with CHO cells at various concentration and examined S-TBS uptake by flow cytometry. […] The assay was then performed using lower doses of peptides and quantified the signals for statistical analyses. […] In contrast, TBS requires a concentration of at least 5 μM for cell uptake (FIG. 3, Panel B).
Cell permeability assay: CHO-A5 cells were plated in 6-well dishes, and then treated with fluorophore labeled TBS or S-TBS peptides at indicated concentrations for 30 minutes at 37° C. The cells were then washed twice with phosphate-buffered saline (PBS), detached by adding a mixture of trypsin and […] (“trypsin-EDTA”) and harvested by spinning at 2,000 rpm for 5 minutes. The cells were resuspended in PBS and quantified with an LSR flow cytometer (525/50 filter, 488 nm laser) using 30,000 cells per measurement.

CHO cell = assay: Cell toxicity, CHO cell growth; type: cell-based
integrin αIIbβ3 [1] = assay: Integrin activation assay, wild-type talin head domain; type: cell-based; conditions: CHO-A5 cells expressing GFP-tagged wild-type talin head domain; TBS 100 μM, S-TBS 10 and 100 μM, 30 minutes; PAC1 flow cytometry
Description: (§4) Assessing integrin activation: CHO-A5 cells were transfected with GFP-tagged talin-head domain (residues 1-430, WT or W359A) and incubated for 24 hours at 37° C. The cells were subsequently treated with WT-TBS at 100 μM or Staple-TBS (at 10 and 100 μM) for 30 minutes at 37° C. and washed twice with PBS, harvested in trypsin-EDTA, and centrifuged at 2,000 rpm for 5 minutes. The cells were incubated in Tyrode's buffer (136.9 mM NaCl, 10 mM HEPES, 5.5 mM glucose, 11.9 mM NaHCO3, 2.7 mM KCl, 0.5 mM CaCl2), 1.5 mM MgCl2, and 0.4 mM NaH2PO4, pH 7.4) containing PAC1 antibody for 1 hour at 30° C. and then stained with Alexa 647 (goat anti-mouse IgM) for 30 minutes at RT. The cells were quantified with an LSR flow cytometer using 30,000 cells per measurement.
(§5) The effect of S-TBS on talin-induced activation of integrin αIIbβ3 was examined. CHO-A5 cells that stably express integrin αIIbβ3 were transfected with a green fluorescent protein-tagged talin head domain, treated with S-TBS or TBS, and then subjected flow cytometry analysis for integrin αIIbβ3 activity. […]
(§6) Integrin activation assays: CHO-A5 cells were transfected with talin-head domain, wild-type or W359A, and incubated for 24 hours at 37° C. […] The cells were quantified with a Beckton, Dickenson & Co. Biosciences LSR flow cytometer (660/20 filter, 640 nm laser) using 30,000 cells per measurement.

HEK-293 cells = assay: Cell toxicity assay, HEK-293; type: cell-based; conditions: 40 μM, treated one hour then washed away, viability at 24 and 48 hours
Description: as §1

[2] = target: T2, talin head (residues 1-430) (Mus musculus, UniProt P26039); assay: Fluorescent polarization (FP) binding assay, talin head
T2 construct: talin rod R7R8 and talin head (residues 1-430) were measured; made in house
Description: as §2, §3

integrin αIIbβ3 [3] = assay: Integrin activation assay, inactive talin head mutant THD-W359A; type: cell-based; conditions: CHO-A5 cells transfected with THD-W359A; TBS 100 μM, S-TBS 10 and 100 μM; PAC1 flow cytometry
Description: as §4, §5, §6

T1 sequence (P26039 1359-1659 limits assumed): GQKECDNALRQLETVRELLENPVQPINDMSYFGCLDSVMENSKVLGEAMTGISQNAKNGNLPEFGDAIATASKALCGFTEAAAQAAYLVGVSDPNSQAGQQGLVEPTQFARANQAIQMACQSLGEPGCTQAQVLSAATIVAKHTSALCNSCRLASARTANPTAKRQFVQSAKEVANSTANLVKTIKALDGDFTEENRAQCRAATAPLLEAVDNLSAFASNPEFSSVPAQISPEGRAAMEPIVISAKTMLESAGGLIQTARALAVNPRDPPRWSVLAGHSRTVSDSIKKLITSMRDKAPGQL

In the case of `CC[C@H](C)[C@H](NC(=O)[C@H](CC(=O)O)NC(=O)[C@H](CCC(=O)O)NC(=O)[C@@H](N)CC(N)=O)C(=O)N[C@@H](CC(=O)O)C(=O)N[C@@H](CCC(N)=O)C(=O)N[C@@H](CCSC)C(=O)N[C@@H](Cc1ccccc1)C(=O)N[C@@H](CO)C(=O)N[C@H](C(=O)N[C@@H](CC(C)C)C(=O)N[C@@H](CC(C)C)C(=O)NCC(=O)N[C@@H](CCC(=O)O)C(=O)N[C@@]1(C)CCCC=CCCC[C@@](C)(C(=O)N[C@@H](CCC(N)=O)C(=O)N[C@@H](CO)C(=O)O)NC(=O)[C@H](CC(C)C)NC(=O)[C@H](CC(C)C)NC(=O)[C@H](CC(=O)O)NC1=O)[C@@H](C)O` [S-TBS, (Stp(15,19))H2N-NEDIDQMFSTLLGE(S5)DLL(S5)QS-OH] (H-NEDIDQMFSTLLGE[S5]DLL[S5]QS-OH; staple 15-19), the “cell toxicity (viability / cell growth), HeLa” value (HeLa cells) is reported as “No impact; also recorded: minimal cell toxicity”, the “impact on Jurkat T-cell growth” value (Jurkat T-cell) is reported as “no impact” and the “fold stronger binding to R7R8 than TBS” value (talin rod R7R8 domains) is reported as 6 fold. The “cell toxicity (viability / cell growth), MCF-7” value (MCF-7 cells) was “No impact; also recorded: minimal cell toxicity”, the “fluorescence signal of treated cells (peptide uptake) compared with fluorophore-labelled TBS” value (CHO-A5 cells; CHO cells, 1, 10 and 50 μM, 30 minutes at 37° C., FITC-labeled S-TBS) was “significantly stronger signal” and the “concentration giving significant cell uptake” value (CHO-A5 cells; CHO-A5 cells, lower doses, flow cytometry permeability index, fluorophore-labelled peptides) was 0.5 µM. For the same molecule, the “impact on CHO cell growth” value (CHO cell) was “no impact”, the “integrin αIIbβ3 activity (talin-induced activation)” value (integrin αIIbβ3 [1]) was “significantly suppresses integrin αIIbβ3 activity in a dose-dependent manner” and the “cell toxicity (viability / cell growth), HEK” value (HEK-293 cells) was “No impact; also recorded: minimal cell toxicity”. The Kd ([2]; FP assay, fluorophore-labeled peptide, purified recombinant talin head (residues 1-430), read-out: Kd, talin head domain) was 30.3 ± 4.8 µM, the “fold stronger binding to talin head than TBS” value ([2]; S-TBS versus TBS, from FP Kd values) was 3.5 fold and the “integrin αIIbβ3 activity with inactive talin head THD-W359A” value (integrin αIIbβ3 [3]) was “No inhibitory effect”.
